We go through 2 compounds from article PMC12494099, “Discovery and Characterization of Novel IKZF1/3 Glue Degraders against Multiple Hematological Cancer Cell Lines” (Oncology Research, 2025).

Format in all cases: cell-based
One test has as its system MV-4-11. Nature of the test: Cell viability (CCK-8) assay. To be noted: for IC50: Homo sapiens, MV4-11, 96 h, 96 h, CCK-8. The procedure, abridged:
(§1)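 Antiproliferative activity is assessed in cultures of 15,000 cells per well exposed to compound, with surviving cell load quantified by the CCK-8 method as directed by the manufacturer.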

In the next test the test system is NCI-H929. Nature of the test: Cell viability (CCK-8) assay. To be noted: Homo sapiens, NCI-H929, 96 h. The procedure, abridged: as §1
A further test deals with OPM-2. The test can be described thus: Cell viability (CCK-8) assay. Conditions: Homo sapiens, OPM-2; MM, 96 h; read-out: IC50 (μM) OPM-2. The procedure, abridged: as §1
In a further test the test system is Skm-1. Nature of the test: Cell viability (CCK-8) assay. Conditions: Homo sapiens, SKM-1; AML, 96 h; read-out: IC50 (μM) Skm-1. Put shortly: as §1
The subject of another test is U2932. The test can be described thus: Cell viability (CCK-8) assay. Conditions: Homo sapiens, U2932; DLBCL, 96 h; read-out: IC50 (μM) U2932. The procedure, abridged:
as §1

In a further test the test system is WSU-DLCL-2. Nature of the test: Cell viability (CCK-8) assay. To be noted: Homo sapiens, WSUDLCL2; DLBCL, 96 h; read-out: IC50 (μM) WSU-DLCL-2. Put shortly:
as §1

A further test concerns the target T1, CK1α-HiBiT (Homo sapiens, UniProt P48729).
T1 construct: expressed in transfected cells; host or cells: HEK293T
Nature of the test: Quantitative degradation assay using the HiBiT system (HEK293T). Conditions: increased dosing to 10 μM, 24 h. On the procedure: (§2) An in vitro quantitative degradation assay utilizing the HiBiT system was carried out as previously described. To evaluate the degradation of IKZF1, IKZF2, and IKZF3 proteins, HEK293T cell lines stably expressing IKZF1-, IKZF2-, IKZF3-, GSPT1- or CK1α-HiBiT were cultured in 96-well plates at 12,000 cells per well. The cells were treated with different concentrations of the test compounds (MGD-A7 and MGD-C9) with concentrations of 0, 0.01, 0.033, 0.1, 0.33, 1, 3.3, 10 and 33 μM for the specified time intervals. After the treatment, cell lysis was carried out using the Nano-Glo HiBiT Lytic Detection System (#N3040, Promega). All lysis operations were strictly carried out according to the manufacturer’s specific protocol. Then, the SpectraMax iD3 instrument (Molecular Devices, San Jose, CA, USA) was used to detect the luminescent signals released by the HiBiT-tagged neosubstrates.

For another test, the target named is T2, GSPT1-HiBiT (Homo sapiens, UniProt P15170).
T2 construct: expressed in transfected cells; host or cells: HEK293T
T2 sequence (Q96SW2 whole entry partner): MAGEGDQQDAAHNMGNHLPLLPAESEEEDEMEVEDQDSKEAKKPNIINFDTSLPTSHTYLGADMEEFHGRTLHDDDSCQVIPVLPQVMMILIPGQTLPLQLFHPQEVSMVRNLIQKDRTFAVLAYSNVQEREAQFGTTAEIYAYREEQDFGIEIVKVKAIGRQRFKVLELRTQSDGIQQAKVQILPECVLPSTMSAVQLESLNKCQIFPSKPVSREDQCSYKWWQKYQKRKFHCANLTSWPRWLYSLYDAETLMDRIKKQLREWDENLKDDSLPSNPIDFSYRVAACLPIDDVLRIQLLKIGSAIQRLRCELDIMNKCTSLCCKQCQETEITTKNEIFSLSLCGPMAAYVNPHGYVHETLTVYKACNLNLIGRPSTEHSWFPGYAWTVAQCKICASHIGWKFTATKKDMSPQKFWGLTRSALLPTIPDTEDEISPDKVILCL
T2 sequence (Q16531 whole entry partner): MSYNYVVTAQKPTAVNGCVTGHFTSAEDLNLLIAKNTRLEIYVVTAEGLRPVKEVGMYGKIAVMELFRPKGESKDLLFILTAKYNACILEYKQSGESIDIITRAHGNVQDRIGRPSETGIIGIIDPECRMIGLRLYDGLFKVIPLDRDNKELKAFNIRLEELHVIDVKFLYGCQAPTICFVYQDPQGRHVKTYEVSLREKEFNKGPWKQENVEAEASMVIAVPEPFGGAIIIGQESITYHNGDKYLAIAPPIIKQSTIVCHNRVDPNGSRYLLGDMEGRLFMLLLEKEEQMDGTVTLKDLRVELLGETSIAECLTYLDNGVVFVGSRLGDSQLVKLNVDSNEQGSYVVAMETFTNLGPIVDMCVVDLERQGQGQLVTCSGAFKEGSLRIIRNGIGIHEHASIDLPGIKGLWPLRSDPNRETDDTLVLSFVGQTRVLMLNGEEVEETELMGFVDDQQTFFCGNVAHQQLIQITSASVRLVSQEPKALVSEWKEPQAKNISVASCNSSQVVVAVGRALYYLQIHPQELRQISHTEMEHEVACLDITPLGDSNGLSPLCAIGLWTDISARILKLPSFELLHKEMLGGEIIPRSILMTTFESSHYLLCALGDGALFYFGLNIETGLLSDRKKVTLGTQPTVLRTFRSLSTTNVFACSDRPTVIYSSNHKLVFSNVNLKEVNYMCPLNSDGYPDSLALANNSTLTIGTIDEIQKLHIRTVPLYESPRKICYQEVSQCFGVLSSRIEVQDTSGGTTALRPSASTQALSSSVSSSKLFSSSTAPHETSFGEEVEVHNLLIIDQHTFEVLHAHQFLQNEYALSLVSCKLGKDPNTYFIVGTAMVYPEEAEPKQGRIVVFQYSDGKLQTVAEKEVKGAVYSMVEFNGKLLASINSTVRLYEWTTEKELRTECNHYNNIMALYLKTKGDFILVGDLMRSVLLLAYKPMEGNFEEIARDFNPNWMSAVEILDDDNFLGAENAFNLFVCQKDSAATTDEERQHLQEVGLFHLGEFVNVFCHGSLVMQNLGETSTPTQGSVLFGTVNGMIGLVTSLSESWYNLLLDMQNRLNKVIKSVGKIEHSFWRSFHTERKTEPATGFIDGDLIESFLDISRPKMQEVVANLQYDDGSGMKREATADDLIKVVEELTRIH
T2 sequence (P15170 whole entry): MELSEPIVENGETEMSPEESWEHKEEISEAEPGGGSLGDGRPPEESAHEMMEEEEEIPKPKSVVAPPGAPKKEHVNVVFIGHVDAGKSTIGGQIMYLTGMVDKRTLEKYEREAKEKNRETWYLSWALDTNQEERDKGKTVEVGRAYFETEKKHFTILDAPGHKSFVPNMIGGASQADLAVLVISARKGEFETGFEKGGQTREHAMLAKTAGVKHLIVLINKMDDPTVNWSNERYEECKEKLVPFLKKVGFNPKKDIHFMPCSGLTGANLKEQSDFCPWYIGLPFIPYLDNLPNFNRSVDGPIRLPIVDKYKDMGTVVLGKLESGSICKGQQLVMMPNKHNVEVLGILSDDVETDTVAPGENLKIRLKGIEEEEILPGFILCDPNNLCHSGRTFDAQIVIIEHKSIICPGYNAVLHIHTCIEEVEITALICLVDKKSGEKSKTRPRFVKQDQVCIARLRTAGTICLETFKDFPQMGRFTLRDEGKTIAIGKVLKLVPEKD
The description is as above. To be noted: increased dosing to 10 μM, 24 h. The procedure:
as §2

In a further test the target is T3, IKZF2-HiBiT (Homo sapiens, UniProt Q9UKS7).
T3 construct: expressed in transfected cells; host or cells: HEK293T
T3 sequence (Q96SW2 whole entry partner): as the sequence (Q96SW2 whole entry partner) above
T3 sequence (Q16531 whole entry partner): as the sequence (Q16531 whole entry partner) above
T3 sequence (Q9UKS7 whole entry): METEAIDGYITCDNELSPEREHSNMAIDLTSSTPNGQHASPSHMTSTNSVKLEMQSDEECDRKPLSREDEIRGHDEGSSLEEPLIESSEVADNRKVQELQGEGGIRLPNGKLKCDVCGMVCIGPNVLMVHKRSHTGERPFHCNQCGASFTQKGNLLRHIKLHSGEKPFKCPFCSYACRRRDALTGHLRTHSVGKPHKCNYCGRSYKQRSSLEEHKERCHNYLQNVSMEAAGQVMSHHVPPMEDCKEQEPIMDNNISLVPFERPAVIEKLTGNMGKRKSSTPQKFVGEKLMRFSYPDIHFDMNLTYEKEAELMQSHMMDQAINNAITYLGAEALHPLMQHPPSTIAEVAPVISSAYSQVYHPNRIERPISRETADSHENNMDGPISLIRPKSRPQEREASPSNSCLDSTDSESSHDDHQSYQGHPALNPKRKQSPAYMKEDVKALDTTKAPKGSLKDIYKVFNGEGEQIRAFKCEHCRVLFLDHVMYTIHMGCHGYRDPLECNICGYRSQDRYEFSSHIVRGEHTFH
The test is described as above. Conditions: dose response 24 h and time course 1 µM. The procedure: as §2

A further test has as its target T4, IKZF1 (Homo sapiens, UniProt Q13422+Q96SW2).
T4 construct: endogenous in cells; host or cells: NCI-H929
The test can be described thus: MS-based quantitative proteomics in NCI-H929 cells. Conditions: NCI-H929, 10 μM, 4 h. The procedure: (§3) NCI-H929 cells were treated with either 10 μM DMSO or 10 μM MGD-C9 for 4 h. Post-treatment, the cells were washed with PBS (pH = 7.2–7.4, 1×) and then lysed in 8M Urea (UA) (comprising 8M urea, 100 mM Tris-HCl, pH = 8.0). Subsequently, the cell lysate was subjected to centrifugation on a high-speed freezing microcentrifuge (#CF1524R; SCILOGEX, Meriden, CT, USA) at […], and the supernatant was collected. Subsequently, the collected supernatant was treated with 10 mM tris (2-carboxyethyl) phosphine hydrochloride (TCEP) to reduce it for 30 min. Following this, cysteine alkylation was performed using 50 mM 2-chloroacetamide (CAA) for an additional 30 min. The denatured proteins were then digested with trypsin (1 μg/μL) at an enzyme-to-protein ratio of 1:50 and incubated at 37°C overnight. The reaction was stopped by adding 0.1% formic acid (FA). The samples were desalted using 100 μL pipette tips packed with C18 discs (3M, Saint Paul, MN, USA). Prior to sample loading, the tips were conditioned sequentially with 80 μL of acetonitrile (ACN), followed by 80 μL of a 1:1 (v/v) mixture of H2O and ACN, and finally with 80 μL of H2O. The conditioned tips were loaded with peptides. Then, they were washed twice with 80 μL of H2O. After that, the peptides were eluted twice using 80 μL of a solution composed of 50% water and 50% acetonitrile (ACN). The resulting eluates were vacuum-dried and then reconstituted in 0.1% formic acid for the subsequent LC-MS/MS analysis.
(§4) The peptide mixtures were analyzed using an EASY-nLC 1200 liquid chromatography system (Thermo Fisher Scientific, WLM, MA, USA) equipped with a custom-made 15 cm C18 column (150 μm ID, 1.9 μm particle size, 100 Å pore size). Peptide separation was performed over a 75-min gradient at a constant flow rate of 600 nL/min. The gradient profile was as follows: 4%–7% buffer B (1 min), 7%–13% buffer B (6 min), 13%–25% buffer B (38 min), 25%–45% buffer B (22 min), 45%–95% buffer B (1 min), followed 95% buffer B (7-min). The buffers used were Buffer A (0.1% formic acid) and Buffer B (0.1% formic acid in 80% acetonitrile). The peptide mixtures were then analyzed using a Q Exactive HF mass spectrometer (Thermo Fisher Scientific). MS data were acquired in data-dependent acquisition (DDA) mode with a dynamic exclusion duration of 15 s. MS1 scans were acquired in positive-ion mode across a mass-to-charge (m/z) range of 300–1400, with a resolution of 120,000 (at m/z 200) and a maximum injection time of 50 ms. Precursor ions were fragmented using higher-energy collision dissociation (HCD) at 27% normalized collision energy. MS2 spectra were collected with an AGC target of 5.0 × 10^4 and a maximum injection time of 20 ms.
(§5) Label-free MS raw data were processed using MaxQuant (v2.4) against the UniProt Human database (https://www.uniprot.org/, downloaded May 2024; 20,434 entries). A strict false discovery rate (FDR) threshold of ≤0.01 was applied at the spectra, protein, and modification levels. Contaminants and reverse database hits were excluded. Default settings were used for all other parameters. Protein groups output by MaxQuant were further analyzed in R (v4.2.1). Student’s t-test, and p-values < 0.01 were considered statistically significant for statistical analyses and a volcano plot was generated with GraphPad Prism 8.0.

In another test the target is T5, IKZF5 (Homo sapiens, UniProt Q9H5V7).
T5 construct: endogenous in cells; host or cells: NCI-H929
T5 sequence (Q96SW2 whole entry partner): as the sequence (Q96SW2 whole entry partner) above
T5 sequence (Q16531 whole entry partner): as the sequence (Q16531 whole entry partner) above
T5 sequence (Q9H5V7 whole entry): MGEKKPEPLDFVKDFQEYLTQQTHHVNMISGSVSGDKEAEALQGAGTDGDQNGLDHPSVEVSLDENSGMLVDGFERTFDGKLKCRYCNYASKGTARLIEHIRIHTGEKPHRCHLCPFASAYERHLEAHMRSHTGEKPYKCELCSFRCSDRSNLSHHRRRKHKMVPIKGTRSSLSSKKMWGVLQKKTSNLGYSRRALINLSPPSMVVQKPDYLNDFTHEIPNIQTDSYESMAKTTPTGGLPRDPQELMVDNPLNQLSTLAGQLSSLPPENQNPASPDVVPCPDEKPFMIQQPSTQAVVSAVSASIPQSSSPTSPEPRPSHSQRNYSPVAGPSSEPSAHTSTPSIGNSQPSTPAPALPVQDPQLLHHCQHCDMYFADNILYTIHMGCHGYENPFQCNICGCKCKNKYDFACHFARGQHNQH
Nature of the test: MS-based quantitative proteomics in NCI-H929 cells. To be noted: NCI-H929, 10 μM, 4 h; not notably downregulated. On the procedure:
as §3, §4, §5

T1 sequence (Q96SW2 whole entry partner): as the sequence (Q96SW2 whole entry partner) above
T1 sequence (Q16531 whole entry partner): as the sequence (Q16531 whole entry partner) above
T1 sequence (P48729 whole entry): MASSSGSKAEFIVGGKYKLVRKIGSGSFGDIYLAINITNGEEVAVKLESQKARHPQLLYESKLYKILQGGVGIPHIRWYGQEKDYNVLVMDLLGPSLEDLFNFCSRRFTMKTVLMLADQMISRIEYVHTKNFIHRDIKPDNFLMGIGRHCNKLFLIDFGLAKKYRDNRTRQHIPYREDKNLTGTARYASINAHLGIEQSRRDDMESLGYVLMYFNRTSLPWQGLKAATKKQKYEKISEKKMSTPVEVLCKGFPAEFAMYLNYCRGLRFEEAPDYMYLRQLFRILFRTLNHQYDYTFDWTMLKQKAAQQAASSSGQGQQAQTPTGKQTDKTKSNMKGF
T4 sequence (Q13422 whole entry): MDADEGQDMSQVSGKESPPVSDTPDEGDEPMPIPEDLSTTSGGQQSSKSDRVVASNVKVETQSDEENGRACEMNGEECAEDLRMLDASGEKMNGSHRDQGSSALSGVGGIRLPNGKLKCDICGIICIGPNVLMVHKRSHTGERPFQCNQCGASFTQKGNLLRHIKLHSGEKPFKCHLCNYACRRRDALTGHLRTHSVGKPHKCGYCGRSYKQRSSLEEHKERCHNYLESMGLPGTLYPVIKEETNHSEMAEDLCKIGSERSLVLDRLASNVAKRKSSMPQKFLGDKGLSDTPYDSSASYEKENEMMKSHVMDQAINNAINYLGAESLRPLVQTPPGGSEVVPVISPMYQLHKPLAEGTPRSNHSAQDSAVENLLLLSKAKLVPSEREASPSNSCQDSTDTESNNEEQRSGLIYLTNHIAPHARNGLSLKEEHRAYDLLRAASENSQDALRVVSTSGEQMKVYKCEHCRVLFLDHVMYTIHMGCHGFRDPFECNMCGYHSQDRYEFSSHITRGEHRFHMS
T4 sequence (Q96SW2 whole entry): as the sequence (Q96SW2 whole entry partner) above
T4 sequence (Q16531 whole entry partner): as the sequence (Q16531 whole entry partner) above

Regarding `CN1CCN(Cc2cccc(C(=O)NC3CCC(=O)NC3=O)c2)CC1` (stereo not drawn) [MGD-A7, N-(2,6-dioxopiperidin-3-yl)-3-((4-methylpiperazin-1-yl)methyl)benzamide], the IC50 with MV-4-11 turned out to be 0.59 ± 0.07 µM; in the test on NCI-H929, 0.67 ± 0.1 µM; in the test on OPM-2, 0.153 µM; with Skm-1, 4.03 µM; with U2932, 3.34 µM; with WSU-DLCL-2, 3.82 µM. Besides, the “degradation effect on luminescence signals of CK1α-HiBit” value at CK1α-HiBiT was “minimal degradation effects”. The “degradation effect on luminescence signals of GSPT1-HiBit” value on GSPT1-HiBiT was “minimal degradation effects”. Besides, the “effect on luminescence signals from IKZF2-HiBit” value at IKZF2-HiBiT is on record as “minimal inhibition”.

As for `CN1CCN(Cc2cccc(C(=O)NC3CCC(=O)NC3=O)c2F)C(=O)C1` (stereo not drawn) [MGD-C9, N-(2,6-dioxopiperidin-3-yl)-2-fluoro-3-((4-methyl-2-oxopiperazin-1-yl)methyl)benzamide], the IC50 came out at 0.21 ± 0.02 µM with MV-4-11; 0.26 ± 0.03 µM in the test with NCI-H929; 0.0845 µM with OPM-2; 2.03 µM with Skm-1; 1.25 µM in the test with U2932; 2.24 µM in the test on WSU-DLCL-2. The “fold higher antiproliferative activity than avadomide” value in the test on MV-4-11 (MV-4-11 cells) is reported as “approximately 4 fold”. In addition, at CK1α-HiBiT, the “degradation effect on luminescence signals of CK1α-HiBit” value is “minimal degradation effects”. At GSPT1-HiBiT, the “degradation effect on luminescence signals of GSPT1-HiBit” value is given as “minimal degradation effects”. On IKZF2-HiBiT, the “effect on luminescence signals from IKZF2-HiBit” value is listed as “minimal inhibition”. Also, the “reduction of IKZF1 (proteomics)” value on IKZF1 is recorded as “approximately 75.1%”. In addition, at IKZF5, the “absolute [log2(fold change)] of IKZF5” value is listed as “less than 1”.
